Structures can show the parent of a compound that is named as a salt.

The values below come from publication PMC11351550, “Synthesis, Cytotoxicity and Antioxidant Activity Evaluation of Some Thiazolyl–Catechol Compounds” (Antioxidants, 2024).

The nature of data set [1]: Total Antioxidant Capacity (TAC) assay. It is filed as biochemical. The following applies: 95 °C, 1.5 h, 695 nm. The protocol: (§1) The stock solutions of the reference antioxidants (ascorbic acid, Trolox, EDTA-Na2) and compounds 3a–j were prepared by dissolving the solid powders in DMSO, obtaining 2 mM stock solutions. Following this, an additional set of solutions (0.2 mM) for each compound was obtained by dilution with DMSO. Absorption spectra of the tested compounds covering the range from 400 nm to 800 nm were recorded, indicating no absorption peaks near the wavelengths employed in the experiments. All measurements in the presented assays were made against blank samples. To quantify the activity of the compounds 3a–j, for the antiradical assays (DPPH and ABTS) and ferrous ion chelation, IC50 was calculated using Equation (1), while for the electron transfer assays (TAC, RP, FRAP and CUPRAC), the reference number of mole equivalent activity for each compound was calculated using Equation (2). (1) radical scavenging (%)=control absorbance−sample absorbance/control absorbance×100 (2) equivalents of control=sample absorbance/control absorbance
The Total Antioxidant Capacity (TAC) assay was conducted following the methodology outlined in our previous publication, which was based on initial reports from the literature. A volume of 10 mL of the reagent (0.6 M H2SO4, 28 mM Na3PO4 and 4 mM (NH4)6Mo7O24) and 1000 µL of the compound and standard solutions dispensed from the 2 mM stock solutions were mixed in sealed glass test tubes and incubated in a water bath at 95 °C for 1.5 h. After cooling the test tubes to room temperature, 1000 µL of each solution was diluted with 1000 µL of water. The absorbance of the solutions was then measured at λ = 695 nm.

The subject of data set [2] is normal human foreskin fibroblasts (BJ). Description: Alamar Blue cytotoxicity assay, BJ cells. It is filed as cell-based. Particulars: Homo sapiens, Fibroblast; 48 h exposure, Alamar Blue. Here is the method: (§2) BJ cells were maintained in Dulbecco’s modified Eagle’s medium (DMEM) with low glucose (1 g/L), while the A549 cells were seeded in DMEM with high glucose (5 g/L). All media were supplemented with 10% fetal bovine serum (FBS) and 1% Penicillin/Streptomycin. […] Cellular media were refreshed every other day. Cells were either subcultured or used in experiments once they reached a confluency of 80–90%.
(§3) The cytotoxicity of the synthesized compounds was evaluated by Alamar Blue (AB) assays performed on both cell lines, A549 and BJ, after a 48 h exposure, as previously reported.
(§4) Briefly, approximately 7000 A549 cells and 4000 normal BJ cells were seeded in 100 µL cellular media in 96-well plates to achieve a confluency of 70–80% at the end of the experiment and left to attach overnight before exposure. […] Post-exposure, the media were removed, and the AB assay was performed, with cells being incubated with a 200 µM solution of resazurin for 4 h. The obtained fluorescence was measured at λexcitation = 530/25; λemission = 590/35.
(§5) The experiments included three biological replicates, each one including three technical replicates. The negative control (NC) consisted of cells exposed to a cell culture medium containing 0.2% DMSO and was used for data normalization (100%).

Data set [3] is described as follows: CUPRAC (CUPric-Reducing Antioxidant Capacity) assay. It is filed as biochemical. The following applies: 30 min, 450 nm. The protocol: as §1
The electron-donating capacity of compounds was assessed using the CUPRAC (CUPric-Reducing Antioxidant Capacity) method. The protocol for this assay is a modification of the reports of Alam et al., Özyürek et al., and Apak et al.. Volumes of 250 µL of CuCl2 10 mM, 1 mL of ammonium acetate buffer 1 M, and 250 µL of 7.5 mM neocuproine in ethanol were mixed with 125 µL of samples and reference compound solutions (0.2 mM). The mixtures were shaken for 30 min in the dark; after that, their absorbance was determined spectrophotometrically at λ = 450 nm.

Data set [4] can be described thus: DPPH radical-scavenging assay. It is filed as biochemical. Particulars: 30 min in the dark, 517 nm; read-out: IC50 against DPPH•. Here is the method: as §1
The DPPH˙ (2,2-diphenyl-1-picrylhydrazyl) radical-scavenging assay, initially reported by Brand-Williams et al., relies on transferring a hydrogen atom from the antioxidant substrate being analyzed to the stable violet radical of DPPH˙. This action converts DPPH˙ into a nonradical stable yellow compound. The reduction in absorbance of the DPPH˙ at λ = 517 nm corresponds to the quantity of neutralized reagent. To perform the DPPH assay, we took 50, 75, 100, 125, and 150 µL of each sample from their 0.2 mM stock solutions, then we adjusted the volumes with DMSO to ensure all samples reached a uniform final volume. These solutions were mixed with 1 mL of DPPH reagent and incubated in the dark for 30 min, as presented in literature reports.
On the technique in general: The DPPH test is a chemical assay of radical scavenging.

Data set [5] can be described thus: ABTS radical cation decolorization assay. It is filed as biochemical. The following applies: 10 min, pH 7.4, 734 nm; read-out: IC50 against ABTS•+. The protocol: as §1
The decolorization assay of the green ABTS^•+ (2,2′-azinobis-(3-ethylbenzothiazoline-6-sulfonic acid) to ABTS, based on the report of Re et al., was conducted following our group’s published report. The chemical stability of the ABTS^•+ reagent prior to use was checked at λ = 734 nm over one hour, ensuring a consistent absorption (approximately equal to 0.7). The reagent was prepared in potassium phosphate buffer (0.1 M, pH = 7.4) and activated overnight using MnO2 [17]. In all cuvettes, we added 100 μL of the tested compound solutions (0.2 mM) in increasing concentrations up to 200 µL and 2000 µL of the ABTS^•+ reagent. The resulting mixtures were thoroughly shaken for 10 min at room temperature, in the absence of light. The optical absorbance of the resulting mixtures was then measured by spectrophotometry at λ = 734 nm.

The nature of data set [6]: Reducing power (RP) assay. It is filed as biochemical. Particulars: 50 °C, 20 min, pH 6.6. Here is the method:
as §1
In the reducing power (RP) assay, the tested compounds performed the reduction of ferric ions from potassium ferricyanide, forming ferrocyanide, which gives a blue complex. The protocol followed is an adaptation of previously reported methodologies. In glass test tubes, 1000 µL of solutions containing compounds and standards measured from the 0.2 mM stock solutions were mixed with 400 µL of phosphate buffer (0.2 M, pH = 6.6) and 400 µL of K3[Fe(CN)6] solution (1% w/v). The tubes were sealed and incubated for 20 min in a water bath at 50 °C. After cooling to room temperature, 500 µL of trichloroacetic acid (10% w/w) was added to all test tubes The resulting mixtures were left for 0.5 h at room temperature. Subsequently, 250 µL of the resulting solutions were mixed with 140 µL of FeCl3 solution (0.1% w/v) and 1000 µL of distilled water, and the absorbance of the resulting solutions was determined at λ = 695 nm.

Data set [7] can be described thus: Ferrous ion chelation assay (ferrozine). It is filed as biochemical. The arrangement: key: - represents negligible activity. Here is the method: as §1
To evaluate the ability of compounds to chelate ferrous ions, an assay was performed using an adaptation of Dinis et al.’s initial report. The solutions of the tested compounds (2 mM) were mixed well with 500 µL of FeSO4 (0.125 mM), and 500 µL of ferrozine 0.315 mM. After 10 min, the absorbance of the samples was determined spectrophotometrically at λ = 562 nm. EDTA-Na2 was used as a positive control, due to its exceptional ion chelation properties.

For data set [8], the system named is human pulmonary malignant cells (A549). Kind of data set: Alamar Blue cytotoxicity assay, A549 cells. It is filed as cell-based. The protocol: as §2, §3, §4, §5
Data set [9] in a line: Ferric-Reducing Antioxidant Potential (FRAP) assay. The following applies: pH 3.6, 593 nm. In kind it is biochemical. Here is the method:
as §1
The Ferric-Reducing Antioxidant Potential (FRAP) assay relies on the transfer of an electron from the antioxidant being assessed to Fe^3+, resulting in its conversion to Fe^2+. The resulting Fe^2+ ions are then chelated by 2,4,6-tripyridyl-s-triazine, giving a blue-colored complex, with an absorption maximum at λ = 593 nm. A 500 µL amount of the solutions (0.2 mM) of compounds and reference compounds was mixed with 600 µL FRAP reagent and 1200 µL acetate buffer (0.3 M, pH = 3.6), according to previous reports. The resulting solutions were mixed well in the dark, and their absorbance was measured spectrophotometrically.

By melting point is commonly meant the temperature of the solid-liquid transition. Take `COc1cc(-c2nc(-c3ccc(O)c(O)c3)cs2)cc(OC)c1OC` (as salt: hydrochloride) [Compound 3f, 4-(2-(3,4,5-trimethoxyphenyl)thiazol-4-yl)benzene-1,2-diol]: the melting point was 219 °C.
`Oc1ccc(-c2csc(-c3csc(-c4ccccc4)n3)n2)cc1O` (as salt: hydrochloride) [Compound 3i, 4-(2′-phenyl-[2,4′-bithiazol]-4-yl)benzene-1,2-diol] registered a melting point of 258 °C.
Still for that read-out and setting: the same measure for `Oc1ccc(-c2csc(-c3ccccn3)n2)cc1O` (as salt: hydrochloride) [Compound 3h, 4-(2-(pyridin-2-yl)thiazol-4-yl)benzene-1,2-diol]: 230 °C; for `Oc1ccc(-c2csc(-c3ccncc3)n2)cc1O` (as salt: hydrochloride) [Compound 3g, 4-(2-(pyridin-4-yl)thiazol-4-yl)benzene-1,2-diol]: 240 °C; for `Cc1cccc(-c2nc(-c3ccc(O)c(O)c3)cs2)c1` (as salt: hydrochloride) [Compound 3e, 4-(2-(m-tolyl)thiazol-4-yl)benzene-1,2-diol]: 196 °C.
A word on the IC50: it is the concentration needed to halve the response being measured. `Cc1cccc(-c2nc(-c3ccc(O)c(O)c3)cs2)c1` [Compound 3e, 4-(2-(m-tolyl)thiazol-4-yl)benzene-1,2-diol]: the “TAC Eq Ascorbic Acid” value in data set [1] was found to be 0.91 Eq Ascorbic Acid. Besides, the half-inhibitory concentration (IC50) in data set [2] came to 46.8 µM; in data set [4], 46.8 µM; in data set [5] it was 13.9 µM; in data set [8] (Homo sapiens, A549, 48 h exposure, Alamar Blue, read-out: IC50 (±SD) A549), 6.46 µM. Moreover, in data set [3], the “CUPRAC Eq Trolox” value is 3.13 Eq Trolox. Also, in [6], the “RP Eq Ascorbic Acid” value came to 1.64 Eq Ascorbic Acid. The “RP Eq Trolox” value in [6] came to 1.37 Eq Trolox. Besides, the “ferrous ion chelation percent” value in data set [7] (0.25 µM), in data set [7] (0.5 µM), in data set [7] (1 µM), in [7] (1.5 µM) and in [7] (2 µM) was “-” in each case. Besides, the “Selectivity Index” value in data set [8] (ratio between the calculated IC50 on BJ and A549 cells, 48 h) was 7.23. Moreover, the “FRAP Eq Trolox” value in [9] is given as 1.07 Eq Trolox.
In turn, `Cc1ccc(-c2nc(-c3nc(-c4ccc(O)c(O)c4)cs3)cs2)cc1` (as salt: hydrochloride) [Compound 3j, 4-(2′-(p-tolyl)-[2,4′-bithiazol]-4-yl)benzene-1,2-diol] registered a melting point of 265 °C.
